Test results: ChEMBL document CHEMBL1201862, “PubChem BioAssay data set” (2004)
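Following 48 hours of exposure in 96-well plates, responses at five concentrations were used to interpolate endpoints linearly. Abbreviation: GI50, concentration required for 50% inhibition of growth.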 Calls of active or inactive are those of the source. Cut-off read from the data, not from the text of the source: active = GI50 up to about 1.1 µM and inactive = higher.

Tests used:
Experiment in all cases: inhibition of tumour cell growth, NCI panel, 48 h
786-0 = system: 786-0
A498 = system: A498
A549 = system: A549
ACHN = system: ACHN
BT-549 = system: BT-549
CAKI-1 = system: CAKI-1
CCRF-CEM = system: CCRF-CEM
COLO 205 = system: COLO 205
DU-145 = system: DU-145
EKVX = system: EKVX
HCC 2998 = system: HCC 2998
HCT-116 = system: HCT-116
HCT-15 = system: HCT-15
HL-60 = system: HL-60
HOP-62 = system: HOP-62
HOP-92 = system: HOP-92
HT-29 = system: HT-29
Hs-578T = system: Hs-578T
IGROV-1 = system: IGROV-1
K562 = system: K562
KM12 = system: KM12
LOX IMVI = system: LOX IMVI
M14 = system: M14
MCF7 = system: MCF7
MDA-MB-231 = system: MDA-MB-231
MDA-MB-435 = system: MDA-MB-435
MDA-N = system: MDA-N
MOLT-4 = system: MOLT-4
Malme-3M = system: Malme-3M
NCI-H226 = system: NCI-H226
NCI-H23 = system: NCI-H23
NCI-H460 = system: NCI-H460
NCI-H522 = system: NCI-H522
NCI/ADR-RES = system: NCI/ADR-RES
OVCAR-3 = system: OVCAR-3
OVCAR-4 = system: OVCAR-4
OVCAR-5 = system: OVCAR-5
OVCAR-8 = system: OVCAR-8
PC-3 = system: PC-3
RPMI-8226 = system: RPMI-8226
RXF 393 = system: RXF 393
SF-268 = system: SF-268
SF-295 = system: SF-295
SF-539 = system: SF-539
SK-MEL-28 = system: SK-MEL-28
SK-MEL-2 = system: SK-MEL-2
SK-OV-3 = system: SK-OV-3
SN12C = system: SN12C
SNB-19 = system: SNB-19
SNB-75 = system: SNB-75
SW-620 = system: SW-620
T47D = system: T47D
TK-10 = system: TK-10
U-251 = system: U-251
UACC-257 = system: UACC-257
UACC-62 = system: UACC-62
SK-MEL-5 = system: SK-MEL-5
UO-31 = system: UO-31
SR = system: SR

## O=c1cc(N2CCCC2)[nH]c(=O)n1-c1ccc(F)cc1
786-0
  GI50: > 100 µM (inactive)
A498
  GI50: > 100 µM (inactive)
A549
  GI50: > 100 µM (inactive)
ACHN
  GI50: > 100 µM (inactive)
BT-549
  GI50: > 100 µM (inactive)
CAKI-1
  GI50: > 100 µM (inactive)
CCRF-CEM
  GI50: > 100 µM (inactive)
COLO 205
  GI50: > 100 µM (inactive)
DU-145
  GI50: > 100 µM (inactive)
EKVX
  GI50: > 100 µM (inactive)
HCC 2998
  GI50: > 100 µM (inactive)
HCT-116
  GI50: > 100 µM (inactive)
HCT-15
  GI50: > 100 µM
HL-60
  GI50: > 100 µM (inactive)
HOP-62
  GI50: > 100 µM (inactive)
HOP-92
  GI50: > 100 µM (inactive)
HT-29
  GI50: > 100 µM (inactive)
Hs-578T
  GI50: > 100 µM (inactive)
IGROV-1
  GI50: > 100 µM (inactive)
K562
  GI50: > 100 µM (inactive)
KM12
  GI50: > 100 µM (inactive)
LOX IMVI
  GI50: > 100 µM (inactive)
M14
  GI50: > 100 µM (inactive)
MCF7
  GI50: > 100 µM (inactive)
MDA-MB-231
  GI50: > 100 µM (inactive)
MDA-MB-435
  GI50: > 100 µM (inactive)
MDA-N
  GI50: > 100 µM (inactive)
MOLT-4
  GI50: > 100 µM (inactive)
Malme-3M
  GI50: > 100 µM (inactive)
NCI-H226
  GI50: 20.3 µM (inactive)
NCI-H23
  GI50: > 100 µM (inactive)
NCI-H460
  GI50: > 100 µM (inactive)
NCI-H522
  GI50: > 100 µM (inactive)
NCI/ADR-RES
  GI50: > 100 µM (inactive)
OVCAR-3
  GI50: > 100 µM (inactive)
OVCAR-4
  GI50: > 100 µM (inactive)
OVCAR-5
  GI50: > 100 µM (inactive)
OVCAR-8
  GI50: > 100 µM (inactive)
PC-3
  GI50: > 100 µM (inactive)
RPMI-8226
  GI50: > 100 µM (inactive)
RXF 393
  GI50: > 100 µM (inactive)
SF-268
  GI50: > 100 µM (inactive)
SF-295
  GI50: > 100 µM (inactive)
SF-539
  GI50: > 100 µM (inactive)
SK-MEL-28
  GI50: > 100 µM (inactive)
SK-MEL-2
  GI50: > 100 µM (inactive)
SK-OV-3
  GI50: > 100 µM (inactive)
SN12C
  GI50: > 100 µM (inactive)
SNB-19
  GI50: > 100 µM (inactive)
SNB-75
  GI50: > 100 µM (inactive)
SW-620
  GI50: > 100 µM (inactive)
T47D
  GI50: > 100 µM (inactive)
TK-10
  GI50: > 100 µM (inactive)
U-251
  GI50: > 100 µM (inactive)
UACC-257
  GI50: > 100 µM (inactive)
UACC-62
  GI50: > 100 µM (inactive)

## CC(=O)Oc1ccccc1C(=O)Nc1ncc([N+](=O)[O-])s1 [NITAZOXANIDE]
786-0
  GI50: 26.7 µM (inactive)
A498
  GI50: 56.2 µM (inactive)
A549
  GI50: 22 µM (inactive)
ACHN
  GI50: 20.4 µM (inactive)
BT-549
  GI50: 14.4 µM (inactive)
CAKI-1
  GI50: 26.5 µM (inactive)
COLO 205
  GI50: 12.7 µM (inactive)
DU-145
  GI50: 20.1 µM (inactive)
EKVX
  GI50: 21 µM (inactive)
HCC 2998
  GI50: 13 µM (inactive)
HCT-116
  GI50: 11.2 µM (inactive)
HCT-15
  GI50: 19.9 µM
HOP-62
  GI50: 22.3 µM (inactive)
HOP-92
  GI50: 3.22 µM (inactive)
HT-29
  GI50: 15.5 µM (inactive)
Hs-578T
  GI50: 9.2 µM (inactive)
IGROV-1
  GI50: 16.3 µM (inactive)
K562
  GI50: 55.7 µM (inactive)
KM12
  GI50: 22 µM (inactive)
LOX IMVI
  GI50: 21.8 µM (inactive)
M14
  GI50: 15.9 µM (inactive)
MCF7
  GI50: 10.2 µM (inactive)
MDA-MB-231
  GI50: 21.8 µM (inactive)
MDA-MB-435
  GI50: 22.8 µM (inactive)
MDA-N
  GI50: 27.3 µM (inactive)
MOLT-4
  GI50: > 100 µM (inactive)
Malme-3M
  GI50: 11.1 µM (inactive)
NCI-H226
  GI50: 8.83 µM (inactive)
NCI-H23
  GI50: 9.73 µM (inactive)
NCI-H460
  GI50: 17.1 µM (inactive)
NCI-H522
  GI50: 2.86 µM (inactive)
NCI/ADR-RES
  GI50: 10.3 µM (inactive)
OVCAR-3
  GI50: 5.71 µM (inactive)
OVCAR-4
  GI50: 28.7 µM (inactive)
OVCAR-5
  GI50: 29.9 µM (inactive)
OVCAR-8
  GI50: 15.7 µM (inactive)
PC-3
  GI50: 9.53 µM (inactive)
RPMI-8226
  GI50: 10.3 µM (inactive)
RXF 393
  GI50: 4.42 µM (inactive)
SF-268
  GI50: 14.9 µM (inactive)
SF-295
  GI50: 9.91 µM (inactive)
SF-539
  GI50: 24.8 µM (inactive)
SK-MEL-28
  GI50: 11.6 µM (inactive)
SK-MEL-2
  GI50: 16.3 µM (inactive)
SK-MEL-5
  GI50: 11.9 µM (inactive)
SK-OV-3
  GI50: 14.7 µM (inactive)
SN12C
  GI50: 19.8 µM (inactive)
SNB-19
  GI50: 17.9 µM (inactive)
SNB-75
  GI50: 10.2 µM (inactive)
SW-620
  GI50: 33.1 µM (inactive)
T47D
  GI50: 13.7 µM (inactive)
TK-10
  GI50: 16.1 µM (inactive)
U-251
  GI50: 19.4 µM (inactive)
UACC-257
  GI50: 17.2 µM (inactive)
UACC-62
  GI50: 4.33 µM (inactive)
UO-31
  GI50: 26 µM (inactive)

## O=c1[nH]c(=O)n(C2CC(O)C(CO)O2)cc1OCC1CCCCC1 (centres undefined)
786-0
  GI50: > 100 µM (inactive)
A549
  GI50: > 100 µM (inactive)
ACHN
  GI50: > 100 µM (inactive)
BT-549
  GI50: > 100 µM (inactive)
CAKI-1
  GI50: > 100 µM (inactive)
CCRF-CEM
  GI50: > 100 µM (inactive)
COLO 205
  GI50: > 100 µM (inactive)
DU-145
  GI50: > 100 µM (inactive)
EKVX
  GI50: > 100 µM (inactive)
HCT-116
  GI50: > 100 µM (inactive)
HCT-15
  GI50: > 100 µM
HL-60
  GI50: > 100 µM (inactive)
HOP-62
  GI50: > 100 µM (inactive)
HT-29
  GI50: > 100 µM (inactive)
Hs-578T
  GI50: > 100 µM (inactive)
IGROV-1
  GI50: > 100 µM (inactive)
K562
  GI50: > 100 µM (inactive)
KM12
  GI50: > 100 µM (inactive)
LOX IMVI
  GI50: > 100 µM (inactive)
M14
  GI50: > 100 µM (inactive)
MCF7
  GI50: > 100 µM (inactive)
MDA-MB-231
  GI50: > 100 µM (inactive)
MDA-MB-435
  GI50: > 100 µM (inactive)
MDA-N
  GI50: > 100 µM (inactive)
MOLT-4
  GI50: > 100 µM (inactive)
Malme-3M
  GI50: > 100 µM (inactive)
NCI-H226
  GI50: > 100 µM (inactive)
NCI-H23
  GI50: > 100 µM (inactive)
NCI-H460
  GI50: > 100 µM (inactive)
NCI-H522
  GI50: > 100 µM (inactive)
NCI/ADR-RES
  GI50: > 100 µM (inactive)
OVCAR-3
  GI50: > 100 µM (inactive)
OVCAR-4
  GI50: > 100 µM (inactive)
OVCAR-5
  GI50: > 100 µM (inactive)
OVCAR-8
  GI50: > 100 µM (inactive)
PC-3
  GI50: > 100 µM (inactive)
RXF 393
  GI50: > 100 µM (inactive)
SF-268
  GI50: > 100 µM (inactive)
SF-295
  GI50: > 100 µM (inactive)
SK-MEL-28
  GI50: > 100 µM (inactive)
SK-MEL-5
  GI50: > 100 µM (inactive)
SK-OV-3
  GI50: > 100 µM (inactive)
SN12C
  GI50: > 100 µM (inactive)
SNB-19
  GI50: > 100 µM (inactive)
SNB-75
  GI50: > 100 µM (inactive)
SR
  GI50: > 100 µM (inactive)
T47D
  GI50: > 100 µM (inactive)
TK-10
  GI50: > 100 µM (inactive)
U-251
  GI50: > 100 µM (inactive)
UACC-257
  GI50: > 100 µM (inactive)
UACC-62
  GI50: > 100 µM (inactive)
UO-31
  GI50: > 100 µM (inactive)
